From US12577259B2, “PCSK9 antagonist compounds” (MERCK SHARP & DOHME LLC, priority 2019, dated 2026)

How the values were obtained:
Format in all cases: binding
PCSK9 [1] = biological target: T1, PCSK9 (Homo sapiens, UniProt Q8NBP7); assay: PCSK9 Alexa FRET Standard TR-FRET assay; conditions: biotinylated PCSK9 0.5 nM, 20 nM AF cyclic peptide Reagent A; Ki calculated from IC50 and KD of AF peptide; read-out: Alexa FRET Stdt TR-FRET
T1 construct: biotin (biotinylated); purchased
Procedure: (§1) The following is a description of the assays used to determine activity of compounds of the invention, and any comparator compounds reported, toward PCSK9 antagonism. Biotinylated PCSK9 was obtained commercially.
A separate solution containing 40 nM of the AlexaFluor tagged cyclic peptide is made in the same buffer system. An Echo is used to transfer 0.750 ul of compound to an assay plate followed by the addition of 15 ul of PCSK9+Stept-Eu and 15 ul of AF peptide. […] The reaction is incubated at room temperature for at least two hours prior to fluorescence measurements using an Envision Multilabel Reader. IC50 values are determined by fitting data to a sigmoidal dose-response curve using nonlinear regression. Ki is then calculated from the Ic50 and the KD of AF cyclic peptide. Counts (B-counts) of the europium-labeled PCSK9 are followed to observe if compounds are adversely PCSK9. A fall off of the B-counts likely indicates a false positive of inhibition. Data from this procedure is reported as “A=‘numerical value’ (nanomolar)”

PCSK9 [2] = biological target: T1, PCSK9; assay: PCSK9 Alexa FRET Plus TR-FRET assay; conditions: biotinylated PCSK9 0.5 nM, 960 nM AF cyclic peptide Reagent B; Ki calculated from IC50 and KD of AF peptide
Procedure: as §1
An Echo is used to transfer 0.075 ul of compound plus 0.675 ul of DMSO to each well of an assay plate followed by the addition of 15 ul of PCSK9+Stept-Eu and 15 ul of AF peptide. […] The reaction is incubated at room temperature for at least two hours prior to fluorescence measurements using an Envision Multilabel Reader. IC50 values are determined by fitting data to a sigmoidal dose-response curve using nonlinear regression. Ki is then calculated from the Ic50 and the KD of AF cyclic peptide. Counts (B-counts) of the europium-labeled PCSK9 are followed to observe if compounds are adversely affecting PCSK9. […] Data from this procedure is reported as “P=‘numerical value’ (nanomolar)”

PCSK9 [3] = biological target: T1, PCSK9; assay: PCSK9 Alexa FRET Ultra TR-FRET assay
Procedure: The following is a description of the assays used to determine activity of compounds of the invention, and any comparator compounds reported, toward PCSK9 antagonism. Biotinylated PCSK9 was obtained commercially. […] An Echo is used to transfer 0.015 ul of compound plus 0.735 ul of DMSO to each well of an assay plate followed by the addition of 15 ul of PCSK9+Stept-Eu and 15 ul of AF peptide. […] The reaction is incubated at room temperature for at least two hours prior to fluorescence measurements using an Envision Multilabel Reader. IC50 values are determined by fitting data to a sigmoidal dose-response curve using nonlinear regression. Ki is then calculated from the Ic50 and the KD of AF cyclic peptide. Counts (B-counts) of the europium-labeled PCSK9 are followed to observe if compounds are adversely affecting PCSK9. […] Data from this procedure is reported as “Ki Ultra=‘numerical value’ (data reported is nanomolar)”

[4] = Ki Ultra, biotinylated PCSK9 0.5 nM, 960 nM AF cyclic peptide, Ki calculated from IC50 and KD of AF peptide, read-out: Alexa FRET Ultra TR-FRET

T1 sequence (Q8NBP7 153-692): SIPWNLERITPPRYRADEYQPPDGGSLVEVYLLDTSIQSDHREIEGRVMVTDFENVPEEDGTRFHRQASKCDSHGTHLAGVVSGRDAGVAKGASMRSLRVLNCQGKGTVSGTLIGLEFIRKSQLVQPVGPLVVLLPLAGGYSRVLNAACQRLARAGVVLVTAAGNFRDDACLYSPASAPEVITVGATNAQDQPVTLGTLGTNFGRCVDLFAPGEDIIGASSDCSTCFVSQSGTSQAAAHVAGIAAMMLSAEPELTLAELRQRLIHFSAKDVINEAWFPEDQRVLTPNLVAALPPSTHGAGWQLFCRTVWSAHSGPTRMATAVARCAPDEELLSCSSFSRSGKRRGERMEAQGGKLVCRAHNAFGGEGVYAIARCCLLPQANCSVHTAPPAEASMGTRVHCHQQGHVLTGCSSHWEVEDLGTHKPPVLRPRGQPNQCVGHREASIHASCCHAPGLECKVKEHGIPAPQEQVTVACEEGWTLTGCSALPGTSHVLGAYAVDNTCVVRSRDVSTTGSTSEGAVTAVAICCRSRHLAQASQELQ

| SMILES | Ki (PCSK9 [1]) | Ki (PCSK9 [2]) | Ki (PCSK9 [3]; [4]) | Ki (PCSK9 [3]) |
| --- | --- | --- | --- | --- |
| COc1ccc(C[C@@H]2NC(=O)[C@H]([C@@H](C)O)NC(=O)[C@@H]3[C@@H]4CCN3C(=O)[C@@H]3Cc5cn(c6ccc(F)cc56)CCCCCCN(Cc5ccc(cc5)CCNC(=O)[C@]5(C)CCCN5C2=O)C(=O)CCCCCC(=O)N[C@H](CNC(=O)CCOCCOCC[N+](C)(C)CCNC(=O)COCCOCCNC(=O)COCCOCCNC(=O)CC[C@H](NC(=O)CCCCCCCCCCCCCCC(=O)O)C(=O)O)C(=O)N[C@@H](Cc2cccc(c2)CNC(=O)CO4)C(=O)N3)cc1 [Example 13] | < 1.26 nM | < 0.006 nM | – | – |
| COc1ccc(C[C@@H]2NC(=O)[C@H]([C@@H](C)O)NC(=O)[C@@H]3[C@@H]4CCN3C(=O)[C@@H]3Cc5cn(c6ccc(F)cc56)Cc5cn(nn5)Cc5cc(ccc5CNC(=O)CCCCCC(=O)N[C@H](CNC(=O)CCOCCOCC[N+](C)(C)CCNC(=O)COCCOCCNC(=O)COCCOCCNC(=O)CC[C@H](NC(=O)CCCCCCCCCCCCCCC(=O)O)C(=O)O)C(=O)N[C@@H](Cc5cccc(c5)C/C=C/CO4)C(=O)N3)CCNC(=O)[C@]3(C)CCCN3C2=O)cc1 [Example 5] | < 1.26 nM | 0.036 nM | 0.13 nM | – |
| COc1ccc(C[C@@H]2NC(=O)[C@H]([C@@H](C)O)NC(=O)[C@@H]3[C@@H]4CCN3C(=O)[C@@H]3Cc5cn(c6ccc(F)cc56)Cc5cn(nn5)Cc5cc(ccc5CNC(=O)CCCCCC(=O)N[C@H](CNC(=O)COCCOCC[N+](C)(C)CCNC(=O)COCCOCCNC(=O)COCCOCCNC(=O)CCC(NC(=O)CCCCCCCCOCCCCCCCCC(=O)O)C(=O)O)C(=O)N[C@@H](Cc5cccc(c5)C/C=C/CO4)C(=O)N3)CCNC(=O)[C@]3(C)CCCN3C2=O)cc1 (some centres unmarked) [Example 2] | < 1.26 nM | 0.024 nM | 0.14 nM | – |
| COc1ccc(C[C@@H]2NC(=O)[C@H]([C@@H](C)O)NC(=O)[C@@H]3[C@@H]4CCN3C(=O)[C@@H]3Cc5cn(c6ccc(F)cc56)Cc5cn(nn5)Cc5cc(ccc5CNC(=O)CCCCCC(=O)N[C@H](CNC(=O)CCOCCOCC[N+](C)(C)CCNC(=O)COCCOCCNC(=O)COCCOCCNC(=O)CC[C@H](NC(=O)CC[C@H](NC(=O)CCCCCCCCCCCCCCCCC(=O)O)C(=O)O)C(=O)O)C(=O)N[C@@H](Cc5cccc(c5)C/C=C/CO4)C(=O)N3)CCNC(=O)[C@]3(C)CCCN3C2=O)cc1 [Example 6] | < 1.26 nM | 0.049 nM | 0.36 nM | – |
| COc1ccc(C[C@@H]2NC(=O)[C@H]([C@@H](C)O)NC(=O)[C@@H]3[C@@H]4CCN3C(=O)[C@@H]3Cc5cn(c6ccc(F)cc56)CCCCCCN(Cc5ccc(cc5)CCNC(=O)[C@]5(C)CCCN5C2=O)C(=O)CCOCCC(=O)N[C@H](CNC(=O)CCOCCOCC[N+](C)(C)CCNC(=O)COCCOCCNC(=O)COCCOCCNC(=O)CC[C@H](NC(=O)CC[C@H](NC(=O)CCCCCCCCCCCCCCCCC(=O)O)C(=O)O)C(=O)O)C(=O)N[C@@H](Cc2cccc(c2)CNC(=O)CO4)C(=O)N3)cc1 [Example 10] | < 1.26 nM | < 0.006 nM | – | 0.004 nM |
| COc1ccc(C[C@@H]2NC(=O)[C@H]([C@@H](C)O)NC(=O)[C@@H]3[C@@H]4CCN3C(=O)[C@@H]3Cc5cn(c6ccc(F)cc56)Cc5cn(nn5)Cc5cc(ccc5CNC(=O)CCCCCC(=O)N[C@H](CNC(=O)COCCOCCNC(=O)CC[C@H](NC(=O)CCOCCOCC[N+](C)(C)CCNC(=O)COCCOCCNC(=O)COCCOCCNC(=O)CCC(NC(=O)CCCCCCCCCCCCCCCCC(=O)O)C(=O)O)C(=O)O)C(=O)N[C@@H](Cc5cccc(c5)C/C=C/CO4)C(=O)N3)CCNC(=O)[C@]3(C)CCCN3C2=O)cc1 (some centres unmarked) [Example 1] | < 1.26 nM | 0.205 nM | 0.488 nM | – |
| COc1ccc(C[C@@H]2NC(=O)[C@H]([C@@H](C)O)NCC(=O)[C@@H]3[C@@H]4CCN3C(=O)[C@@H]3Cc5cn(c6ccc(F)cc56)Cc5cn(nn5)Cc5cc(ccc5CNC(=O)CCCCCC(=O)N[C@H](CNC(=O)CCOCCOCC[N+](C)(C)CCOCCNC(=O)COCCOCCNC(=O)COCCOCCNC(=O)CC[C@H](NC(=O)CC[C@H](NC(=O)CCCCCCCCCCCCCCC(=O)O)C(=O)O)C(=O)O)C(=O)N[C@@H](Cc5cccc(c5)C/C=C/CO4)C(=O)N3)CCNC(=O)[C@]3(C)CCCN3C2=O)cc1 [Example 4] | < 1.26 nM | 0.037 nM | 0.16 nM | – |
| COc1ccc(C[C@@H]2NC(=O)[C@H]([C@@H](C)OCc3cn(CCNC(=O)CCOCCOCC[N+](C)(C)C)nn3)NC(=O)[C@@H]3[C@@H]4CCN3C(=O)[C@@H]3Cc5cn(c6ccc(F)cc56)CCCCCCN(Cc5ccc(cc5)CCNC(=O)[C@]5(C)CCCN5C2=O)C(=O)CCC(=O)N[C@@H](C)C(=O)N[C@H](CNC(=O)COCCOCCNC(=O)COCCOCCNC(=O)CC[C@H](NC(=O)CCCCCCCCCCCCCCCCC(=O)O)C(=O)O)C(=O)N[C@@H](Cc2cccc(c2)CNC(=O)CO4)C(=O)N3)cc1 [Example 7] | < 1.26 nM | < 0.006 nM | 0.004 nM | – |
| COc1ccc(C[C@@H]2NC(=O)[C@H]([C@@H](C)Oc3cn(CCNC(=O)CCOCCOCC[N+](C)(C)CCNC(=O)COCCOCCNC(=O)COCCOCCNC(=O)CCC(NC(=O)CC[C@H](NC(=O)CCCCCCCCCCCCCCCCC(=O)O)C(=O)O)C(=O)O)nn3)NC(=O)[C@@H]3[C@@H]4CCN3C(=O)[C@@H]3Cc5cn(c6ccc(F)cc56)CCCCCCN(Cc5ccc(cc5)CCNC(=O)[C@]5(C)CCCN5C2=O)C(=O)CCC(=O)N[C@@H](C)C(=O)N[C@H](CNC(=O)CCOCCOCC[N+](C)(C)C)C(=O)N[C@@H](Cc2cccc(c2)C/C=C/CO4)C(=O)N3)cc1 (some centres unmarked) [Example 9] | < 1.26 nM | < 0.006 nM | – | 0.003 nM |
| COc1ccc(C[C@@H]2NC(=O)[C@H]([C@@H](C)O)NC(=O)[C@@H]3[C@@H]4CCN3C(=O)[C@@H]3Cc5cn(c6ccc(F)cc56)CCCCCCN(Cc5ccc(cc5)CCNC(=O)[C@]5(C)CCCN5C2=O)C(=O)CCOCCC(=O)N[C@H](CNC(=O)CCOCCOCC[N+](C)(C)CCNC(=O)COCCOCCNC(=O)COCCOCCNC(=O)CCC(NC(=O)CCCCCCCCCCCCCCC(=O)O)C(=O)O)C(=O)N[C@@H](Cc2cccc(c2)CNC(=O)CO4)C(=O)N3)cc1 (some centres unmarked) [Example 11] | < 1.26 nM | < 0.006 nM | 0.001 nM | – |
| COc1ccc(C[C@@H]2NC(=O)[C@H]([C@@H](C)O)NC(=O)[C@@H]3[C@@H]4CCN3C(=O)[C@@H]3Cc5cn(c6ccc(F)cc56)CCCCCCN(Cc5ccc(cc5)CCNC(=O)[C@]5(C)CCCN5C2=O)C(=O)CCOCCC(=O)N[C@H](CNC(=O)CCOCCOCC[N+](C)(C)CCNC(=O)COCCOCCNC(=O)COCCOCCNC(=O)CC[C@H](NC(=O)CC[C@H](NC(=O)CCCCCCCCCCCCCCC(=O)O)C(=O)O)C(=O)O)C(=O)N[C@@H](Cc2cccc(c2)CNC(=O)CO4)C(=O)N3)cc1 [Example 12] | < 1.26 nM | < 0.006 nM | 0.002 nM | – |
| COc1ccc(C[C@@H]2NC(=O)[C@H]([C@@H](C)O)NC(=O)[C@@H]3[C@@H]4CCN3C(=O)[C@@H]3Cc5cn(c6ccc(F)cc56)Cc5cn(nn5)Cc5cc(ccc5CNC(=O)CCCCCC(=O)N[C@H](CNC(=O)CCOCCOCC[N+](C)(C)CCNC(=O)COCCOCCNC(=O)COCCOCCNC(=O)CC[C@@H](NC(=O)CC[C@@H](NC(=O)CCCCCCCCCCCCCCCCC(=O)O)C(=O)O)C(=O)O)C(=O)N[C@@H](Cc5cccc(c5)C/C=C/CO4)C(=O)N3)CCNC(=O)[C@]3(C)CCCN3C2=O)cc1 [Example 3] | < 1.26 nM | 0.082 nM | 0.43 nM | – |
| COc1ccc(C[C@@H]2NC(=O)[C@H]([C@@H](C)OCc3cn(CCNC(=O)COCCOCCNC(=O)COCCOCCNC(=O)CC[C@H](NC(=O)CCCCCCCCCCCCCCCCC(=O)O)C(=O)O)nn3)NC(=O)[C@@H]3[C@@H]4CCN3C(=O)[C@@H]3Cc5cn(c6ccc(F)cc56)CCCCCCN(Cc5ccc(cc5)CCNC(=O)[C@]5(C)CCCN5C2=O)C(=O)CCC(=O)N[C@@H](C)C(=O)N[C@H](CNC(=O)CCOCCOCC[N+](C)(C)C)C(=O)N[C@@H](Cc2cccc(c2)CNC(=O)CO4)C(=O)N3)cc1 [Example 8] | < 1.26 nM | < 0.006 nM | – | 0.006 nM |
